{
  "source": "patent US20170015555A1",
  "about": "“LONG-TERM PRESERVATION AND NOVEL APPLICATION OF CHLOROUS ACID AQUEOUS SOLUTION FORMULATION” (priority 2013, published 2017)",
  "key": {"[1]": {"experiment": "Deodorizing effect (chemical deodorization, gas detector tube)", "settings": "spray 20 cc", "excerpt": "In order to evaluate tests on deodorizing effects, the present Example examined deodorizing effects by using standards regarding air freshening and deodorization ([II]-2 Method of Testing Deodorizing Efficacy (Chemical Deodorization)) set forth by the Air Fresheners and Deodorizers Conference (http://www.houkou.gr.jp/) as the efficacy testing method, which is adopted by Japan Food Research Laboratories.\nAmmonium odor: Ammonium Standard Solution II (Wako Pure Chemical Industries, for testing malodorous substances) Amine odor: methyl mercaptan standard solution (Wako Pure Chemical Industries, for testing malodorous substances) Sulfur odor: hydrogen sulfide (self-made, used hydrogen sulfide that was generated by adding sulfuric acid to zinc sulfide)\nGas detector tube made by GASTEC Corporation Ammonium odor: Detector tube ammonium 3 L made by GASTEC Corporation Amino odor: Detector tube methyl mercaptan 71 made by GASTEC Corporation Sulfur odor: Detector tube hydrogen sulfide 4 LL made by GASTEC Corporation\nTests were conducted in compliance with ([II]-2 Method of Testing Deodorizing Efficacy (Chemical Deodorization)) set forth by the Air Fresheners and Deodorizers Conference.\nThe tests were carried out by static culture method, using a commercially-available airbag with a spigot having a volume of about 10 L as test containers. The volume of airbags was appropriately changed in accordance with the size of the product.\nThe bags were filled with odorless air. Malodor concentrations were measured over time at room temperature (about 20° C.). (3 points or higher, detection tube method (FIG. 16), measured by an instrument analysis method or olfactory measurement method. When decrease in the blank was observed, the decrease was suitably corrected. When measuring by olfactory measuring method, the airbag spigot was opened for direct sniffing, or gas was transferred to an odor bag while wearing a mask to perform olfactory measurement in an autonomic respiration form. Measured air was not returned to the source)."}, "[2]": {"experiment": "Available chlorine concentration after impregnating diluent in treatment sheet", "type": "physicochemical", "method": "(1) The available chlorine concentration of the “chlorous acid aqueous solution formulation (see Example 1: Table 11)” was measured, and the formulation was diluted to an available chlorine concentration of 1000 ppm [chlorous acid (HClO2) concentration: 489 ppm] or 500 ppm [chlorous acid (HClO2) concentration: 245 ppm]. (2) The available chlorine concentration of sodium hypochlorite was measured, and the sodium hypochlorite was diluted to an available chlorine concentration of 1000 ppm or 500 ppm. (3) The available chlorine concentration of the diluted solution was measured to find the available chlorine concentration prior to contact with a treatment sheet. (4) Treatment sheets were stacked, rolled up and inserted into a 200 ml-capacity PET bottle. A solution diluted so that the weight ratio of treatment sheet: agent solution would be 1:3 was poured into the 200 ml-capacity PET bottle containing the treatment sheets. (5) After contact with treatment sheets, treatment sheets were pulled out from the 200 ml-capacity PET bottle immediately after contact, after 1 hour, after 2 hours, after 3 hours, after 12 hours, after 24 hours, after 48 hours (after 2 days), after 72 hours (after 3 days), and after 168 hours (after 7 days). The sheets were used as specimens for examining available chlorine concentrations. (6) Solutions from the treatment sheets, the specimens pulled out from the 200 ml-capacity PET bottle, were wrung out into a 100 mL beaker. The available chlorine concentration of the solution was measured.\n1. About 5 g of solution that was wrung out from the specimen was collected in a triangular flask with a stopper. 2. After adding 10 mL of 10 w/w % potassium iodide to the triangular flask with a stopper, 10 mL of 10% sulfuric acid was added. 3. After sealing, the mixture was left standing for 15 minutes in the dark. 4. 0.1 mol/L sodium thiosulfate solution was added until the color became light yellow. About 1 mL of 1 w/w % starch solution was added, and 0.1 mol/L sodium thiosulfate solution was added until the color of the solution became colorless. 5. Chlorine titer was found by the following equation.\nR; Chlorine titer value a; Amount of 0.1 mol/L sodium thiosulfate solution added (g) f; Factor of 0.1 mol/L sodium thiosulfate solution w; Weight of measured specimen solution (g) 0.0035; Amount of chlorine corresponding to 1 g of 0.1 mol/L sodium thiosulfate 100; Percentage"}, "pathogenic microbes": {"tested_on": "pathogenic microbes", "experiment": "Preventing secondary contamination upon treating vomit, summary over all tested microbes", "type": "cell-based", "excerpt": "1) Chlorous acid aqueous solution formulation (see Example 1: Table 11) Treatment sheet (material: 100% cotton): (about 27×40 cm) *Impregnated at a ratio of weight of treatment sheet (g): amount of liquid (ml)=1:3 2) Imitation vomit (hereinafter, referred to as vomit) Miso solution: adjusted to pH 2 with hydrochloric acid 3) Test Microbes that were used E. coli: Escherichia coli IF03927 Staphylococcus aureus: Staphylococcus aureus IF0 12732 Thermoduric Microbes (Bacillus cereus): Bacillus cereus NBRC15305 Microbes of the genus Salmonella: Salmonella Enteritidis IF03313 Enterohemorrhagic Escherichia coli 0157: Escherichia coli 0157 Enterohemorrhagic Escherichia coli 0111: Escherichia coli 0111 Enterohemorrhagic Escherichia coli 026: Escherichia coli O26\nPermeability of pathogenic microbes into a treatment sheet when treating vomit was examined to compare effects of preventing secondary contamination. (1) Imitation vomit is spread in an area about the size of an A4 sheet. (2) 30 agent solution-containing treatment sheets were laid thereon and left standing for 10 minutes. (3) Treatment sheets were removed one at a time from the top. After diluting with saline, the sample was spread in a petri dish and cultured."}},
  "data": [
    {"smiles": "OCl", "note": "[Sodium Hypochlorite, sodium hypochlorite]", "values": [
      {"measurement": "residual concentration of hydrogen sulfide, after correction (Control = 100)", "setting": "[1]; Table 57, 0 h after spraying", "value": 0},
      {"measurement": "residual concentration of hydrogen sulfide, before correction", "setting": "[1]; Table 57, 0 h after spraying", "value": 0, "unit": "ppm"},
      {"measurement": "residual concentration of hydrogen sulfide, after correction (Control = 100)", "setting": "[1]; Table 57, 3 h after spraying", "value": 0},
      {"measurement": "residual concentration of hydrogen sulfide, before correction", "setting": "[1]; Table 57, 3 h after spraying", "value": 0, "unit": "ppm"},
      {"measurement": "residual concentration of hydrogen sulfide, after correction (Control = 100)", "setting": "[1]; Table 57, 6 h after spraying", "value": 0},
      {"measurement": "residual concentration of hydrogen sulfide, before correction", "setting": "[1]; Table 57, 6 h after spraying", "value": 0, "unit": "ppm"},
      {"measurement": "residual concentration of hydrogen sulfide, after correction (Control = 100)", "setting": "[1]; Table 57, 9 h after spraying", "value": 0},
      {"measurement": "residual concentration of hydrogen sulfide, before correction", "setting": "[1]; Table 57, 9 h after spraying", "value": 0, "unit": "ppm"},
      {"measurement": "residual concentration of hydrogen sulfide, after correction (Control = 100)", "setting": "[1]; Table 57, 24 h after spraying", "value": 0},
      {"measurement": "residual concentration of hydrogen sulfide, before correction", "setting": "[1]; Table 57, 24 h after spraying", "value": 0, "unit": "ppm"},
      {"measurement": "residual concentration of hydrogen sulfide, after correction (Control = 100)", "setting": "[1]; Table 57, before spraying", "value": 100},
      {"measurement": "residual concentration of hydrogen sulfide, before correction", "setting": "[1]; Table 57, before spraying", "value": 40, "unit": "ppm"},
      {"measurement": "residual concentration of hydrogen sulfide, after correction (Control = 100)", "setting": "[1]; Table 58, 0 h after spraying", "value": 0},
      {"measurement": "residual concentration of hydrogen sulfide, before correction", "setting": "[1]; Table 58, 0 h after spraying", "value": 0, "unit": "ppm"},
      {"measurement": "residual concentration of hydrogen sulfide, after correction (Control = 100)", "setting": "[1]; Table 58, 3 h after spraying", "value": 0},
      {"measurement": "residual concentration of hydrogen sulfide, before correction", "setting": "[1]; Table 58, 3 h after spraying", "value": 0, "unit": "ppm"},
      {"measurement": "residual concentration of hydrogen sulfide, after correction (Control = 100)", "setting": "[1]; Table 58, 6 h after spraying", "value": 0},
      {"measurement": "residual concentration of hydrogen sulfide, before correction", "setting": "[1]; Table 58, 6 h after spraying", "value": 0, "unit": "ppm"},
      {"measurement": "residual concentration of hydrogen sulfide, after correction (Control = 100)", "setting": "[1]; Table 58, 9 h after spraying", "value": 0},
      {"measurement": "residual concentration of hydrogen sulfide, before correction", "setting": "[1]; Table 58, 9 h after spraying", "value": 0, "unit": "ppm"},
      {"measurement": "residual concentration of hydrogen sulfide, after correction (Control = 100)", "setting": "[1]; Table 58, 24 h after spraying", "value": 0},
      {"measurement": "residual concentration of hydrogen sulfide, before correction", "setting": "[1]; Table 58, 24 h after spraying", "value": 0, "unit": "ppm"},
      {"measurement": "residual concentration of hydrogen sulfide, after correction (Control = 100)", "setting": "[1]; Table 58, before spraying", "value": 100},
      {"measurement": "residual concentration of hydrogen sulfide, before correction", "setting": "[1]; Table 58, before spraying", "value": 50, "unit": "ppm"},
      {"measurement": "Available Chlorine Concentration", "setting": "[2]; set concentration 500, 1 hour of contact", "value": 175, "unit": "ppm"},
      {"measurement": "Available Chlorine Concentration", "setting": "[2]; set concentration 500, 2 hours of contact", "value": 168, "unit": "ppm"},
      {"measurement": "Available Chlorine Concentration", "setting": "[2]; set concentration 500, 3 hours of contact", "value": 144, "unit": "ppm"},
      {"measurement": "Available Chlorine Concentration", "setting": "[2]; set concentration 500, 12 hours of contact", "value": 91, "unit": "ppm"},
      {"measurement": "Available Chlorine Concentration", "setting": "[2]; set concentration 500, 24 hours of contact", "value": 68, "unit": "ppm"},
      {"measurement": "Available Chlorine Concentration", "setting": "[2]; set concentration 500, 48 hours of contact", "value": 39, "unit": "ppm"},
      {"measurement": "Available Chlorine Concentration", "setting": "[2]; set concentration 500, 72 hours of contact", "value": 39, "unit": "ppm"},
      {"measurement": "Available Chlorine Concentration", "setting": "[2]; set concentration 500, 168 hours of contact", "value": 37, "unit": "ppm"},
      {"measurement": "Available Chlorine Concentration", "setting": "[2]; set concentration 500, 504 hours of contact", "value": 32, "unit": "ppm"},
      {"measurement": "Available Chlorine Concentration", "setting": "[2]; set concentration 500, 720 hours of contact", "value": 20, "unit": "ppm"},
      {"measurement": "Available Chlorine Concentration", "setting": "[2]; set concentration 500, before contact with treatment sheet", "value": 549, "unit": "ppm"},
      {"measurement": "Available Chlorine Concentration", "setting": "[2]; set concentration 500, immediately after contact", "value": 352, "unit": "ppm"},
      {"measurement": "Available Chlorine Concentration", "setting": "[2]; set concentration 1000, 1 hour of contact", "value": 631, "unit": "ppm"},
      {"measurement": "Available Chlorine Concentration", "setting": "[2]; set concentration 1000, 2 hours of contact", "value": 595, "unit": "ppm"},
      {"measurement": "Available Chlorine Concentration", "setting": "[2]; set concentration 1000, 3 hours of contact", "value": 515, "unit": "ppm"},
      {"measurement": "Available Chlorine Concentration", "setting": "[2]; set concentration 1000, 12 hours of contact", "value": 184, "unit": "ppm"},
      {"measurement": "Available Chlorine Concentration", "setting": "[2]; set concentration 1000, 24 hours of contact", "value": 89, "unit": "ppm"},
      {"measurement": "Available Chlorine Concentration", "setting": "[2]; set concentration 1000, 48 hours of contact", "value": 76, "unit": "ppm"},
      {"measurement": "Available Chlorine Concentration", "setting": "[2]; set concentration 1000, 72 hours of contact", "value": 54, "unit": "ppm"},
      {"measurement": "Available Chlorine Concentration", "setting": "[2]; set concentration 1000, 168 hours of contact", "value": 40, "unit": "ppm"},
      {"measurement": "Available Chlorine Concentration", "setting": "[2]; set concentration 1000, 504 hours of contact", "value": 34, "unit": "ppm"},
      {"measurement": "Available Chlorine Concentration", "setting": "[2]; set concentration 1000, 720 hours of contact", "value": 24, "unit": "ppm"},
      {"measurement": "Available Chlorine Concentration", "setting": "[2]; set concentration 1000, before contact with treatment sheet", "value": 1045, "unit": "ppm"},
      {"measurement": "Available Chlorine Concentration", "setting": "[2]; set concentration 1000, immediately after contact", "value": 690, "unit": "ppm"},
      {"measurement": "sterilization/removal of pathogenic microbes in stacked treatment sheets", "setting": "pathogenic microbes", "value": "able to sterilize pathogenic microbes from the first sheet"}
    ]}
  ]
}
